Reference: patent US20230233687A1, “HYALURONIC ACID-BASED FORMULATIONS FOR TREATMENT AND PREVENTION OF OCULAR HYPERTENSION AND GLAUCOMA” (I.COM MEDICAL GMBH, priority 2020, published 2023)

How the values were obtained:
[1] = Pre-test: latanoprost dissolved in the HA vehicle (HPLC); format: physicochemical; settings: vehicle 0.15% w/v hylan A in phosphate buffered saline pH 7.4, 25 or 50 μg/ml added, stirred 18 hours at 40° C.
Procedure: Sterile bulk solution for the production of COMFORT SHIELD® MDS eye drops (i.com medical GmbH, Munich, Germany) was used as vehicle for the preparation of prototype latanoprost bulk solution (PLBS). The vehicle contained 0.15% w/v hylan A (HA with 2.9 m^3/kg intrinsic viscosity) dissolved in phosphate buffered saline solution (8.035 g/l NaCl; 1.2 mmol/l Na2HPO4/NaH2PO4; pH 7.4). Latanoprost was obtained from Yonsung Fine Chemicals Co. Ltd., Gyeonggi-do, Republic of Korea. PLBS was prepared by medi-pharm Laboratorium GmbH, Falkensee, Germany by dissolving 20±1 μg/ml latanoprost in the vehicle.
In a pre-test 25 μg/ml and 50 μg/ml latanoprost were added to the vehicle and the solution stirred for 18 hours at 40° C. The latanoprost content was determined by HPLC using a Hypersil B D S C18 […], 150.0×4.0 mm column (VDS optilab) and a UV detector (200 nm).

[2] = PubChem CID 5311221; cited from earlier work

CC(C)OC(=O)CCC/C=C\C[C@@H]1[C@@H](CC[C@@H](O)CCc2ccccc2)[C@H](O)C[C@@H]1O [latanoprost]
latanoprost dissolved in the vehicle [1]: 20.8 µg/mL
solubility of latanoprost in water [2]: 12.9 µg/mL
